According to patent publication US10188634B2, “3-(3H-imidazo[4,5-C]pyridin-2-yl)-1 H-pyrazolo[4,3-B]pyridines and therapeutic uses thereof” (Samumed, LLC, priority 2015, dated 2019):

How the values were obtained:
[1] = test system: Wnt activity (Sp5-Luc reporter, human Sp5 promoter with eight TCF/LEF binding sites) in SW480 colon carcinoma cells; test: Screening assay for Wnt activity: Sp5-Luc reporter gene assay in SW480 cells; assay type: cell-based; conditions: for inhibition at 10 µM: read-out: percent inhibition at 10 μM (given for EC50 of >10 μM); for EC50: 10-point dose-response starting from 10 μM, overnight incubation
Method in brief: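 Luminescence (BrightGlo) read after overnight 37 °C exposure of Sp5-Luc SW480 reporter cells, 4,000/well in 1% FBS, to compound dosed 1:3 over 10 points from 10 μM with 0.1% DMSO. Values normalized to DMSO-only cells, fitted with variable-slope four-parameter model; where EC50 exceeds 10 μM, % inhibition at 10 μM reported.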

[2] = test system: primary human mesenchymal stem cells (hMSCs); test: Induction of chondrogenesis in primary human mesenchymal stem cells (hMSCs), nodule imaging with Rhodamine B / Nile Red; assay type: cell-based; conditions: for Emax: hMSCs chondrogenesis, TGF-β3 (10 ng/mL) as positive control, read-out: Max. Activity as % TGF-β3 activity; for EC50: hMSCs, concentration required to induce 50% levels of chondrogenesis vs TGF-β3 positive control, read-out: Conc (nM) of 50% TGF-β3 activity
Description: Representative compounds were screened using primary human mesenchymal stem cells (hMSCs) to determine their ability to induce chondrogenesis (process by which cartilage is developed).
Human Mesenchymal Stem Cell Culture: Primary human mesenchymal stem cells (hMSCs) were purchased from Lonza (Walkersville, Md.) and expanded in Mesenchymal Stem Cell Growth Media (Lonza). Cells between passage 3 and 6 were used for the experiments.
Compound Screening: Each compound was dissolved in DMSO as a 10 mM stock and used to prepare compound source plates. For the 96 well assay, serial dilution (1:3, 6-point dose-response curves from 2700 nM to 10 nM) and compound transfer was performed using the ECHO 550 (Labcyte, Sunnyvale, Calif.) into 96-well clear bottom assay plates (Greiner Bio-One) with appropriate DMSO backfill for a final DMSO concentration of 0.03%. hMSCs were plated at 20,000 cells/well in 250 μL/well Incomplete Chondrogenic Induction Medium (Lonza; DMEM, dexamethasone, ascorbate, insulin-transferrin-selenium [ITS supplement], gentamycin-amphotericin [GA-1000], sodium pyruvate, proline and L-glutamine). TGF-β3 (10 ng/mL) was used as a positive control for differentiation while negative control wells were treated with 75 nL DMSO for normalization and calculating EC50 values. For the 384 well assay, serial dilution (1:3, 8-point dose-response curves from 5000 nM to 2.2 nM) and compound transfer was performed using the ECHO 550 (Labcyte, Sunnyvale, Calif.) into 384-well clear bottom assay plates (Greiner Bio-One) with appropriate DMSO backfill for a final DMSO concentration of 0.03%. hMSCs were plated at 8,000 cells/well in 80 μL/well Incomplete Chondrogenic Induction Medium (Lonza; DMEM, dexamethasone, ascorbate, insulin-transferrin-selenium [ITS supplement], gentamycin-amphotericin [GA-1000], sodium pyruvate, proline and L-glutamine). TGF-β3 (10 ng/mL) was used as a positive control for differentiation while negative control wells were treated with 25 nL DMSO for normalization and calculating EC50 values. Cells were incubated at 37° C. and 5% CO2 for 6 days. To image chondrogenic nodules, the cells were fixed using 4% formaldehyde (Electron Microscopy Sciences), and stained with 2 μg/mL Rhodamine B (Sigma-Aldrich) and 20 μM Nile Red (Sigma-Aldrich) [Johnson K., et.al, A Stem Cell-Based Approach to Cartilage Repair, Science, (2012), 336(6082). 717-721]. The nodules imaged (25 images per well for 96 well plates and 9 images per well for 384 well plates at 10× magnification) by excitation at 531 nm and emission at 625 nm and quantified using the CellInsight CX5 (Thermo Scientific). Area of nodules in each well was normalized to the average of 3 DMSO treated wells on the same plate using Excel (Microsoft Inc.). The normalized averages (fold change over DMSO) of 2 or 3 replicate wells for each compound concentration were calculated. Due to solubility limitations of some of the compounds, curve fitting was incomplete leading to inaccurate EC50 determinations.
Using TGF-β3 as a positive control, the concentration of representative compounds required to induce 50% levels of chondrogenesis is reported. In addition, the maximum activity of each compound and the respective dose that each compound reached maximum chondrogenesis activity is reported.

EC50 [1] [nM] | EC50 [2] [nM] | Structure (SMILES) | inhibition at 10 µM [1] [%] | Emax [2] [%]
> 10000 | 10 | CN(C)Cc1cncc(-c2ccc3[nH]nc(-c4nc5c(-c6cccs6)cncc5[nH]4)c3n2)c1 [Compound 321, N,N-dimethyl-1-(5-(3-(7-(thiophen-2-yl)-3H-imidazo[4,5-c]pyridin-2-yl)-1H-pyrazolo[4,3-b]pyridin-5-yl)pyridin-3-yl)methanamine] | 19.2 | 79
> 10000 |  | Cc1ccc(-c2cncc3[nH]c(-c4n[nH]c5ccc(-c6cncc(NC(=O)C(C)C)c6)nc45)nc23)s1 [Compound 373, N-(5-(3-(7-(5-Methylthiophen-2-yl)-3H-imidazo[4,5-c]pyridin-2-yl)-1H-pyrazolo[4,3-b]pyridin-5-yl)pyridin-3-yl)isobutyramide] | 16.1 | 42
> 10000 | 1670 | CCNCc1cncc(-c2ccc3[nH]nc(-c4nc5c(-c6cc(F)cc(NCCN(C)C)c6)cncc5[nH]4)c3n2)c1 [Compound 426, N^1-(3-(2-(5-(5-((Ethylamino)methyl)pyridin-3-yl)-1H-pyrazolo[4,3-b]pyridin-3-yl)-3H-imidazo[4,5-c]pyridin-7-yl)-5-fluorophenyl)-N^2,N^2-dimethylethane-1,2-diamine] | 8.8 | 66
> 10000 | 10 | CCCCC(=O)Nc1cncc(-c2ccc3[nH]nc(-c4nc5c(-c6cc(F)cc(NCCN(C)C)c6)cncc5[nH]4)c3n2)c1 [Compound 439, N-(5-(3-(7-(3-((2-(Dimethylamino)ethyl)amino)-5-fluorophenyl)-3H-imidazo[4,5-c]pyridin-2-yl)-1H-pyrazolo[4,3-b]pyridin-5-yl)pyridin-3-yl)pentanamide] | 3.1 | 65
> 10000 |  | CCCC(=O)Nc1cncc(-c2ccc3[nH]nc(-c4nc5c(-c6cc(F)cc(CNS(C)(=O)=O)c6)cncc5[nH]4)c3n2)c1 [Compound 465, N-(5-(3-(7-(3-Fluoro-5-(methylsulfonamidomethyl)phenyl)-3H-imidazo[4,5-c]pyridin-2-yl)-1H-pyrazolo[4,3-b]pyridin-5-yl)pyridin-3-yl)butyramide] | 28 | 39
> 10000 |  | Fc1cccc(-c2cncc3[nH]c(-c4n[nH]c5ccc(C6CCNCC6)nc45)nc23)c1 [Compound 477, 3-(7-(3-Fluorophenyl)-3H-imidazo[4,5-c]pyridin-2-yl)-5-(piperidin-4-yl)-1H-pyrazolo[4,3-b]pyridine] | 20 | 43
> 10000 | 21 | Fc1cccc(-c2cncc3[nH]c(-c4n[nH]c5ccc(-c6cn[nH]c6)nc45)nc23)c1 [Compound 479, 3-(7-(3-Fluorophenyl)-3H-imidazo[4,5-c]pyridin-2-yl)-5-(1H-pyrazol-4-yl)-1H-pyrazolo[4,3-b]pyridine] | 9 | 52
> 10000 |  | Cn1cc(-c2ccc3[nH]nc(-c4nc5c(-c6cccc(F)c6)cncc5[nH]4)c3n2)cn1 [Compound 480, 3-(7-(3-Fluorophenyl)-3H-imidazo[4,5-c]pyridin-2-yl)-5-(1-methyl-1H-pyrazol-4-yl)-1H-pyrazolo[4,3-b]pyridine] | 13 | 49
> 10000 | 30 | Cc1ncc(-c2ccc3[nH]nc(-c4nc5c(-c6cccc(F)c6)cncc5[nH]4)c3n2)n1C [Compound 481, 5-(1,2-Dimethyl-1H-imidazol-5-yl)-3-(7-(3-fluorophenyl)-3H-imidazo[4,5-c]pyridin-2-yl)-1H-pyrazolo[4,3-b]pyridine] | 46 | 132
> 10000 | 7 | NC1CN(c2cncc(-c3ccc4[nH]nc(-c5nc6c(-c7cccc(F)c7)cncc6[nH]5)c4n3)n2)C1 [Compound 482, 1-(6-(3-(7-(3-Fluorophenyl)-3H-imidazo[4,5-c]pyridin-2-yl)-1H-pyrazolo[4,3-b]pyridin-5-yl)pyrazin-2-yl)azetidin-3-amine] | 21 | 56
> 10000 | 7 | Fc1cccc(-c2cncc3[nH]c(-c4n[nH]c5ccc(-c6cncc(OC7CCNCC7)c6)nc45)nc23)c1 [Compound 484, 3-(7-(3-Fluorophenyl)-3H-imidazo[4,5-c]pyridin-2-yl)-5-(5-(piperidin-4-yloxy)pyridin-3-yl)-1H-pyrazolo[4,3-b]pyridine] | 24 | 82
> 10000 | 21 | Oc1cncc(-c2ccc3[nH]nc(-c4nc5c(-c6cccc(F)c6)cncc5[nH]4)c3n2)c1 [Compound 489, 5-(3-(7-(3-Fluorophenyl)-3H-imidazo[4,5-c]pyridin-2-yl)-1H-pyrazolo[4,3-b]pyridin-5-yl)pyridin-3-ol] | 27 | 54
> 10000 | 2 | Fc1cccc(-c2cncc3[nH]c(-c4n[nH]c5ccc(-c6cnccn6)nc45)nc23)c1 [Compound 492, 3-(7-(3-Fluorophenyl)-3H-imidazo[4,5-c]pyridin-2-yl)-5-(pyrazin-2-yl)-1H-pyrazolo[4,3-b]pyridine] | 13 | 67
> 10000 | 21 | CN(C)CC(=O)Nc1cncc(-c2ccc3[nH]nc(-c4nc5c(-c6cccc(F)c6)cncc5[nH]4)c3n2)c1 [Compound 925, 2-(Dimethylamino)-N-(5-(3-(7-(3-fluorophenyl)-3H-imidazo[4,5-c]pyridin-2-yl)-1H-pyrazolo[4,3-b]pyridin-5-yl)pyridin-3-yl)acetamide] | 23 | 52
> 10000 | 30 | COc1cccc(-c2cncc3[nH]c(-c4n[nH]c5ccc(-c6cccnc6)nc45)nc23)c1 [Compound 949, 3-(7-(3-Methoxylphenyl)-3H-imidazo[4,5-c]pyridin-2-yl)-5-(pyridin-3-yl)-1H-pyrazolo[4,3-b]pyridine] | 18.2 | 59
> 10000 | 10 | COc1cccc(-c2cncc3[nH]c(-c4n[nH]c5ccc(-c6cncc(NC(=O)C7CCCCC7)c6)nc45)nc23)c1 [Compound 967, N-(5-(3-(7-(3-Methoxylphenyl)-3H-imidazo[4,5-c]pyridin-2-yl)-1H-pyrazolo[4,3-b]pyridin-5-yl)pyridin-3-yl)cyclohexanecarboxamide] | 0 | 80
> 10000 | 7 | Cc1ncc(-c2ccc3[nH]nc(-c4nc5c(-c6cccc(F)c6)cncc5[nH]4)c3n2)s1 [Compound 1081, 5-(3-(7-(3-Fluorophenyl)-3H-imidazo[4,5-c]pyridin-2-yl)-1H-pyrazolo[4,3-b]pyridin-5-yl)-2-methylthiazole] | 38 | 81

Structure (SMILES) | EC50 [1] [nM] | EC50 [2] [nM] | inhibition at 10 µM [1] [%] | Emax [2] [%]
Fc1cccc(-c2cncc3[nH]c(-c4n[nH]c5ccc(C6=CCNCC6)nc45)nc23)c1 [Compound 478, 3-(7-(3-Fluorophenyl)-3H-imidazo[4,5-c]pyridin-2-yl)-5-(1,2,3,6-tetrahydropyridin-4-yl)-1H-pyrazolo[4,3-b]pyridine] | > 10000 | 7 | 11 | 53
